According to the supplement of paper PMC11061612:

Legend:
Carboplatin = compound: C1CC(C1)(C(=O)[O-])C(=O)[O-].N.N.[Pt+2] [Carboplatin]; details: max 10 µM
How it was run: (§1)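 Following 24 hours at 37°C and 5% CO2, cancer cell lines in 1536-well plates with 7.5 μl DMEM/F12 or RPMI and 10% FBS were dosed for 72 hours, final DMSO typically being 0.2%. CellTiter-Glo 2.0 luminescence, scaled between blank-well and DMSO-well means, gave the viability readout. Dose responses were fitted to a two-parameter logistic curve with a non-linear mixed effects model, and the single-agent IC50 was derived from this fit.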

AZD5363 = compound: C1CN(CCC1(C(=O)N[C@@H](CCO)C2=CC=C(C=C2)Cl)N)C3=NC=NC4=C3C=CN4 [AZD5363]; details: max 10 µM
How it was run: as §1

AZD1775 = compound: C=CCn1c(=O)c2cnc(Nc3ccc(N4CCN(C)CC4)cc3)nc2n1-c1cccc(C(C)(C)O)n1 [AZD1775]; details: max 3 µM
How it was run: as §1

Trametinib = compound: CC(=O)Nc1cccc(-n2c(=O)n(C3CC3)c(=O)c3c(Nc4ccc(I)cc4F)n(C)c(=O)c(C)c32)c1 [Trametinib]; details: max 1 µM
How it was run: as §1

Paclitaxel = compound: CC(=O)O[C@H]1C(=O)[C@@]2(C)[C@H]([C@H](OC(=O)c3ccccc3)[C@]3(O)C[C@H](OC(=O)[C@H](O)[C@@H](NC(=O)c4ccccc4)c4ccccc4)C(C)=C1C3(C)C)[C@]1(OC(C)=O)CO[C@@H]1C[C@@H]2O [Paclitaxel]; details: max 3 µM
How it was run: as §1

Palbociclib = compound: CC(=O)c1c(C)c2cnc(Nc3ccc(N4CCNCC4)cn3)nc2n(C2CCCC2)c1=O [Palbociclib]; details: max 10 µM
How it was run: as §1

AZD1390 = compound: CC(C)n1c(=O)n(C)c2cnc3cc(F)c(-c4ccc(OCCCN5CCCCC5)nc4)cc3c21 [AZD1390]; details: max 0.3 µM
How it was run: as §1

Venetoclax = compound: CC1(C)CCC(CN2CCN(c3ccc(C(=O)NS(=O)(=O)c4ccc(NCC5CCOCC5)c([N+](=O)[O-])c4)c(Oc4cnc5[nH]ccc5c4)c3)CC2)=C(c2ccc(Cl)cc2)C1 [Venetoclax]; details: max 1 µM
How it was run: as §1

Dasatinib = compound: CC1=C(C(=CC=C1)Cl)NC(=O)C2=CN=C(S2)NC3=CC(=NC(=N3)C)N4CCN(CC4)CCO [Dasatinib]; details: max 2 µM
How it was run: as §1

SG3199 = compound: CC1=CN2[C@@H](C1)C=NC3=CC(=C(C=C3C2=O)OC)OCCCCCOC4=C(C=C5C(=C4)N=C[C@@H]6CC(=CN6C5=O)C)OC [SG3199]; details: max 0.001 µM
How it was run: as §1

AZD2811 = compound: CCN(CCO)CCCOc1ccc2c(Nc3cc(CC(=O)Nc4cccc(F)c4)[nH]n3)ncnc2c1 [AZD2811]; details: max 1 µM
How it was run: as §1

SN-38 = compound: CCc1c2c(nc3ccc(O)cc13)-c1cc3c(c(=O)n1C2)COC(=O)[C@]3(O)CC [SN-38]; details: max 0.3 µM
How it was run: as §1

AZD0156 = compound: CN(C)CCCOc1ccc(-c2ccc3ncc4c(c3c2)n(C2CCOCC2)c(=O)n4C)cn1 [AZD0156]; details: max 3 µM
How it was run: as §1

AZD4320 = compound: CN(CC[C@H](CSC1=CC=CC=C1)NC2=C(C=C(C=C2)S(=O)(=O)NC(=O)C3=CC=C(C=C3)N4CCC(CC4)[C@H](C5=CC=CC=C5C6=CC=C(C=C6)Cl)O)S(=O)(=O)C(F)(F)F)CCO [AZD4320]; details: max 1 µM
How it was run: as §1

Alisertib = compound: COc1cc(Nc2ncc3c(n2)-c2ccc(Cl)cc2C(c2c(F)cccc2OC)=NC3)ccc1C(=O)O [Alisertib]; details: max 10 µM
How it was run: as §1

Etoposide = compound: COc1cc([C@@H]2c3cc4c(cc3[C@@H](O[C@@H]3O[C@@H]5CO[C@@H](C)O[C@H]5[C@H](O)[C@H]3O)[C@H]3COC(=O)[C@H]23)OCO4)cc(OC)c1O [Etoposide]; details: max 10 µM
How it was run: as §1

Gefitinib = compound: COc1cc2ncnc(Nc3ccc(F)c(Cl)c3)c2cc1OCCCN1CCOCC1 [Gefitinib]; details: max 10 µM
How it was run: as §1

Prexasertib = compound: COc1cccc(OCCCN)c1-c1cc(Nc2cnc(C#N)cn2)n[nH]1 [Prexasertib]; details: max 1 µM
How it was run: as §1

Doxorubicin = compound: COc1cccc2c1C(=O)c1c(O)c3c(c(O)c1C2=O)C[C@@](O)(C(=O)CO)C[C@@H]3O[C@H]1C[C@H](N)[C@H](O)[C@H](C)O1 [Doxorubicin]; details: max 1 µM
How it was run: as §1

AZD5153 = compound: COc1nnc2ccc(N3CCC(c4ccc(OCCN5CCN(C)C(=O)[C@H]5C)cc4)CC3)nn12 [AZD5153]; details: max 1 µM
How it was run: as §1

Lapatinib = compound: CS(=O)(=O)CCNCc1ccc(-c2ccc3ncnc(Nc4ccc(OCc5cccc(F)c5)c(Cl)c4)c3c2)o1 [Lapatinib]; details: max 10 µM
How it was run: as §1

AZD8186 = compound: C[C@@H](Nc1cc(F)cc(F)c1)c1cc(C(=O)N(C)C)cc2c(=O)cc(N3CCOCC3)oc12 [AZD8186]
How it was run: as §1

Crizotinib = compound: C[C@@H](Oc1cc(-c2cnn(C3CCNCC3)c2)cnc1N)c1c(Cl)ccc(F)c1Cl [Crizotinib]; details: max 10 µM
How it was run: as §1

Savolitinib = compound: C[C@@H](c1ccc2nccn2c1)n1nnc2ncc(-c3cnn(C)c3)nc21 [Savolitinib]; details: max 1 µM
How it was run: as §1

AZD6738 = compound: C[C@@H]1COCCN1C2=NC(=NC(=C2)C3(CC3)[S@](=N)(=O)C)C4=C5C=CNC5=NC=C4 [AZD6738]; details: max 10 µM
How it was run: as §1

AZD5991 = compound: Cc1c2c(nn1C)CSCc1cc(n(C)n1)CSc1cc(c3ccccc3c1)OCCCc1c(C(=O)O)n(C)c3c-2c(Cl)ccc13 [AZD5991]; details: max 1 µM
How it was run: as §1

AZD7648 = compound: Cc1cc2ncnn2cc1Nc1ncc2c(n1)n(C1CCOCC1)c(=O)n2C [AZD7648]; details: max 10 µM
How it was run: as §1

Taselisib = compound: Cc1nc(-c2cn3c(n2)-c2ccc(-c4cnn(C(C)(C)C(N)=O)c4)cc2OCC3)n(C(C)C)n1 [Taselisib]; details: max 10 µM
How it was run: as §1

Selumetinib = compound: Cn1cnc2c(F)c(Nc3ccc(Br)cc3Cl)c(C(=O)NOCCO)cc21 [Selumetinib]; details: max 10 µM
How it was run: as §1

SRA737 = compound: N#Cc1cnc(Nc2cc(NC[C@H]3CNCCO3)c(C(F)(F)F)cn2)cn1 [SRA737]; details: max 10 µM
How it was run: as §1

MK-2206 = compound: NC1(c2ccc(-c3nc4ccn5c(=O)[nH]nc5c4cc3-c3ccccc3)cc2)CCC1 [MK-2206]; details: max 10 µM
How it was run: as §1

Gemcitabine = compound: Nc1ccn([C@@H]2O[C@H](CO)[C@@H](O)C2(F)F)c(=O)n1 [Gemcitabine]; details: max 0.3 µM
How it was run: as §1

[1] = compound: O=C(Nc1ccc2[nH]nc(-c3ccncc3)c2c1)[C@@H]1CCN(CC(=O)N2CCN(c3ccc(-c4ncccn4)cc3)CC2)C1; details: max 5 µM
How it was run: as §1

Olaparib = compound: O=C(c1cc(Cc2n[nH]c(=O)c3ccccc23)ccc1F)N1CCN(C(=O)C2CC2)CC1 [Olaparib]; details: max 10 µM
How it was run: as §1

5-Fluorouracil = compound: O=c1[nH]cc(F)c(=O)[nH]1 [5-Fluorouracil]; details: max 20 µM
How it was run: as §1

Capivasertib = compound: C1CN(CCC1(C(=O)N[C@@H](CCO)C2=CC=C(C=C2)Cl)N)C3=NC=NC4=C3C=CN4 [Capivasertib]; details: max 10 µM
How it was run: as §1

Cell Line	IC50, cell viability 72 h (Carboplatin)	IC50, cell viability 72 h (AZD5363)	IC50, cell viability 72 h (AZD1775)	IC50, cell viability 72 h (Trametinib)	IC50, cell viability 72 h (Paclitaxel)	IC50, cell viability 72 h (Palbociclib)	IC50, cell viability 72 h (AZD1390)	IC50, cell viability 72 h (Venetoclax)	IC50, cell viability 72 h (Dasatinib)	IC50, cell viability 72 h (SG3199)	IC50, cell viability 72 h (AZD2811)	IC50, cell viability 72 h (SN-38)	IC50, cell viability 72 h (AZD0156)	IC50, cell viability 72 h (AZD4320)	IC50, cell viability 72 h (Alisertib)	IC50, cell viability 72 h (Etoposide)	IC50, cell viability 72 h (Gefitinib)	IC50, cell viability 72 h (Prexasertib)	IC50, cell viability 72 h (Doxorubicin)	IC50, cell viability 72 h (AZD5153)	IC50, cell viability 72 h (Lapatinib)	IC50, cell viability 72 h (AZD8186; max 10 µM)	IC50, cell viability 72 h (Crizotinib)	IC50, cell viability 72 h (Savolitinib)	IC50, cell viability 72 h (AZD6738)	IC50, cell viability 72 h (AZD5991)	IC50, cell viability 72 h (AZD7648)	IC50, cell viability 72 h (Taselisib)	IC50, cell viability 72 h (Selumetinib)	IC50, cell viability 72 h (SRA737)	IC50, cell viability 72 h (MK-2206)	IC50, cell viability 72 h (Gemcitabine)	IC50, cell viability 72 h [1]	IC50, cell viability 72 h (Olaparib)	IC50, cell viability 72 h (5-Fluorouracil)	IC50, cell viability 72 h (Capivasertib)	IC50, cell viability 72 h (AZD8186; max 3 µM)
A375 (Melanoma)	> 10000 nM	> 10000 nM	813 nM	12.6 nM	42 nM	> 10000 nM	> 300 nM	> 1000 nM	> 2000 nM	> 1 nM	> 1000 nM	7.4 nM	> 3000 nM	> 1000 nM	8150 nM	2610 nM	> 10000 nM	210 nM	265 nM	> 1000 nM	> 10000 nM	> 10000 nM	> 10000 nM	> 1000 nM	9240 nM	> 1000 nM	> 10000 nM	> 10000 nM	693 nM	> 10000 nM	> 10000 nM	9.74 nM	538 nM	> 10000 nM	> 20000 nM		
JJN-3 (Plasma Cell Myeloma)			654 nM	> 1000 nM		> 10000 nM	> 300 nM	> 1000 nM	> 2000 nM	> 1 nM	> 1000 nM	163 nM	> 3000 nM	866 nM	> 10000 nM		> 10000 nM	27.4 nM	994 nM	47.6 nM	> 10000 nM		> 10000 nM	> 1000 nM	5740 nM	49.5 nM	> 10000 nM	> 10000 nM	> 10000 nM		> 10000 nM			> 10000 nM		> 10000 nM	> 3000 nM
NCI-H835 (Other Solid Carcinomas)	> 10000 nM	> 10000 nM	1100 nM	> 1000 nM	2770 nM	> 10000 nM	> 300 nM	> 1000 nM	> 2000 nM	> 1 nM	> 1000 nM	> 300 nM	> 3000 nM	218 nM		> 10000 nM	> 10000 nM	> 1000 nM	> 1000 nM	> 1000 nM	> 10000 nM	> 10000 nM	9990 nM	> 1000 nM	> 10000 nM	> 1000 nM	> 10000 nM	5250 nM	> 10000 nM	> 10000 nM	> 10000 nM	> 300 nM	> 5000 nM	> 10000 nM	> 20000 nM		
NCI-H1944 (Lung Adenocarcinoma)			839 nM	733 nM		> 10000 nM	> 300 nM	> 1000 nM	> 2000 nM	> 1 nM	> 1000 nM	134 nM	> 3000 nM	> 1000 nM	4870 nM		> 10000 nM	134 nM	> 1000 nM	491 nM	> 10000 nM		> 10000 nM	> 1000 nM	3980 nM	> 1000 nM	> 10000 nM	1600 nM	> 10000 nM		> 10000 nM			> 10000 nM		7930 nM	> 3000 nM
OCI-M1 (Acute Myeloid Leukemia)			426 nM	35.4 nM		9530 nM	> 300 nM	> 1000 nM	> 2000 nM	> 1 nM	> 1000 nM	13.4 nM	> 3000 nM	131 nM	516 nM		> 10000 nM	18.6 nM	443 nM	16.2 nM	> 10000 nM		1400 nM	> 1000 nM	657 nM	> 1000 nM	> 10000 nM	> 10000 nM	1810 nM		> 10000 nM			> 10000 nM		> 10000 nM	> 3000 nM
RS4-11 (B-Lymphoblastic Leukemia)			268 nM	> 1000 nM		4980 nM	> 300 nM	5.79 nM	> 2000 nM	> 1 nM	8.84 nM	4.79 nM	> 3000 nM	3.82 nM	32.2 nM		> 10000 nM	16.7 nM	460 nM	191 nM	> 10000 nM		1520 nM	> 1000 nM	1390 nM	723 nM	> 10000 nM	7520 nM	> 10000 nM					> 10000 nM		9400 nM	> 3000 nM
